Like-named read-outs stand apart in the source and are kept apart here.
How the values were obtained:
[1] = tested on: NOD mice; assay: Development of T1D in genetically susceptible NOD mice; format: in vivo; conditions: NOD mice injected before clinical onset, starting between 18 and 24 weeks of age
[2] = tested on: spleen cells; assay: Global gene expression profiling of spleen cells by microarray; format: in vivo, mice
Description: To understand the molecular mechanisms underlying protection against T1D bestowed by TSA treatment in NOD/Ltj mice, transcriptome (gene expression profiling) of spleen cells was analyzed by global gene expression profiling using a microarray approach. To this end, total RNA was isolated from diabetic and cured mice, converted into cRNA and then hybridized to AFFYMETRIX GENECHIP Mouse Genome 430 2.0 microarrays that contain 45,000 probe sets representing 34,000 mouse genes. Three-way analysis of gene expression in untreated-non-diabetic mice, overtly diabetic mice, and those cured by TSA treatment yielded 164 differentially regulated genes, filtered by an ANOVA p-value, 0.05. These highly regulated genes were used for hierarchical clustering. Microarray data sets were deposited at Gene Expression Omnibus (accession no. GSE 26461) (Jayaraman, et al. (2013) PLoS One 8:e55074).
Principal component analysis validated the up-regulation of a set of pro-inflammatory genes in uninduced spleens of overtly diabetic mice, and their repression by TSA treatment. This analysis clearly distinguished the genes that may be responsible for T1D manifestation and therefore of significant impact on the diagnosis of T1D in humans (Jayaraman, et al. (2013) PLoS One 8:e55074).

[3] = tested on: inflammatory genes such as Cela3b, Cpb1, Pnlip and Cel; assay: Quantitative real time-PCR of selected top hit genes; format: in vivo, mice
Excerpt: Expression levels of selected top hit genes were verified in spleens by quantitative real time-PCR using primer sets that were validated following MIQE guidelines and RNA derived from spleens of mice that were different from those used for microarray analysis. The expression of inflammatory genes such as Cela3b (elastase 3), Cpb1 (carboxyepetidase B1), Pnlip (pancreatic lipase) and Cel (carboxyl ester lipase) was prominent in the spleens of diabetic mice. […] However, Ctrl (chymotrypsin-like) gene substantially over-expressed in the exocrine pancreas was not repressed by TSA treatment, indicating the selectivity of gene regulation by chromatin remodeling in the pancreata. In addition, the mRNA levels of Pnliprp-1 (pancreatic lipase-related protein 1), Pnlilrp-2, Ctrl, Ctrc and Cpa1 were not altered by TSA treatment.

[4] = tested on: spleen cells; assay: Flow cytometry of innate immune cell frequency in spleen; format: in vivo, mice
Description: Insulin-producing beta cells can be destroyed by the inflammatory cells and the pro-inflammatory genes that were identified by microarray analysis and further validated by quantitative RT-PCR. Therefore, it was determined whether amelioration of T1D by TSA treatment involves alteration in the frequency of innate immune cells that are likely to express the Cela3b gene. Therefore, T1D susceptible NOD mice were injected with TSA before the clinical onset of diabetes, starting between 18 and 24 weeks of age, and spleen cells were stained with fluorochrome-labeled antibodies and analyzed by flow cytometry. The numbers of both macrophages of the CD11b+Ly6C+ phenotype and neutrophils expressing CD11b+Ly6G+ determinants, known to exert inflammatory responses and tissue damage, increased in the spleen of overtly diabetic mice when compared to prediabetic mice.

[5] = tested on: elastase; assay: Flow cytometry of intracellular elastase in Ly6C+ and Ly6G+ spleen cells; format: in vivo, mice
Description: It was next investigated whether there was a correlation between the numbers of inflammatory cells expressing elastase and the health status. To this end, spleen cells from diabetic mice and those treated with TSA and cured of diabetes were surface labeled with FITC labeled anti-Ly6C antibody (to stain macrophages) and anti-Ly6G antibody (to stain neutrophils). After staining, cells were fixed, permeabilized and incubated with rabbit antibody against elastase, followed by treatment with TRITC-labeled goat anti-rabbit antibody. Cells were analyzed by flow cytometry for the cell surface expression of Ly6C or Ly6G and these cells were gated and analyzed for the intracellular expression of elastase. […] Similarly, the numbers of Ly6G+ neutrophils co-expressing elastase protein were also diminished in TSA treated and cured mice. Thus, TSA treatment abrogated spontaneously occurring T1D in NOD mice, which was negatively correlated with the frequency of both Ly6C+ macrophages and Ly6G+ neutrophils that co-express elastase.

[6] = tested on: islets; assay: Confocal imaging of inflammatory cell infiltration in pancreatic sections; format: in vivo; conditions: drug-treated and cured mice
Description: To visualize the effect of TSA treatment on the infiltration of inflammatory cells in the pancreas, paraffin-embedded pancreatic sections were treated with antibodies against insulin, Ly6C+ macrophages and Ly6G+ neutrophils. Sections were then imaged on a confocal microscope and the images analyzed. Both Ly6C+ macrophages and Ly6G+ neutrophils were evident in the islets of diabetic mice, as identified by co-staining with an anti-insulin antibody. In contrast, both Ly6C+ macrophages and Ly6G+ neutrophils were absent in the islets of drug-treated and cured mice. […] Treatment with TSA effectively eradicated the infiltration of inflammatory cells and thereby provides protection against T1D in the mouse model.

[7] = tested on: NOD mice; conditions: injection; cited from earlier work
[8] = drug administration in mice; cited from earlier work
[9] = tested on: elastase gene; conditions: cited from earlier work
[10] = tested on: islets of Langerhans; conditions: TSA treatment; cited from earlier work

CC(/C=C/C(=O)NO)=C\[C@@H](C)C(=O)c1ccc(N(C)C)cc1 [TSA, Trichostatin A]
diabetes [1]: ameliorated diabetes
set of genes (n=17) over-expressed in spleens of acutely diabetic mice ([2]; microarray, spleens): repressed
expression of lipases Pnliprp1, Pnliprp2, Cel and Pnilp functionally related to Cela3b ([2]; regulated along with Cela3b): downregulated
Ctrl (chymotrypsin-like) gene expression ([3]; over-expressed in the exocrine pancreas, pancreata): not repressed
mRNA level of Cpa1 ([3]; qRT-PCR): not altered
mRNA level of Ctrc ([3]; qRT-PCR): not altered
mRNA level of Ctrl ([3]; qRT-PCR): not altered
mRNA level of Pnlilrp-2 ([3]; qRT-PCR): not altered
mRNA level of Pnliprp-1 (pancreatic lipase-related protein 1) ([3]; qRT-PCR): not altered
expression level of Cel (carboxyl ester lipase) ([3]; qRT-PCR, spleens): reduced the expression levels of these genes substantially
expression level of Cela3b (elastase 3) ([3]; qRT-PCR, spleens): reduced the expression levels of these genes substantially
expression level of Cpb1 (carboxyepetidase B1) ([3]; qRT-PCR, spleens): reduced the expression levels of these genes substantially
expression level of Pnlip (pancreatic lipase) ([3]; qRT-PCR, spleens): reduced the expression levels of these genes substantially
frequency of CD11b+F4/80+ macrophages ([4]; spleen, flow cytometry): did not affect the frequency
frequency of CD11b+Ly6C+ macrophages ([4]; spleen, flow cytometry): reduced the frequency
frequency of CD11b+Ly6G+ neutrophils ([4]; spleen, flow cytometry): reduced the frequency
numbers of dendritic cells expressing CD11c determinant ([4]; spleens, versus prediabetic and diabetic mice): Essentially, the same numbers
numbers of Ly6G+ neutrophils co-expressing elastase protein ([5]; spleens of TSA treated and cured mice): diminished
numbers of Ly6C+ macrophages that contained elastase in the cytoplasm ([5]; spleens of cured versus diabetic mice): significantly lower numbers
Ly6C+ macrophages in the islets [6]: absent
Ly6G+ neutrophils in the islets [6]: absent
development of T1D [7]: prevents the development of T1D
side effects or gross pathological changes [8]: did not result in obvious side effects or gross pathological changes
expression of the elastase gene ([9]; peripheral lymphoid organ spleen): significantly lowered
expression of the elastase gene ([9]; target organ pancreas): significantly lowered
beta cells producing insulin [10]: preservation of the beta cells
inflammation surrounding the islets of Langerhans [10]: eradication of inflammation surrounding the islets of Langerhans

From US9850538B2, “Methods for diagnosing and treating diabetes” (The Board of Trustees of the University of Illinois, priority 2015, dated 2017)
